Experimental data published in BindingDB's records for doi:10.7270/Q2668BMS (Burnham Center For Chemical Genomics, 2010).
pIC50: −log10 of the molar value. Where “and” joins values, the source holds several entries; their conditions need not be identical. Equal entries are not always repeated.

Target: T1, Amyloid-beta A4 precursor protein-binding family A member 1 (Rattus norvegicus, UniProt O35430)
T1 sequence (O35430 whole entry): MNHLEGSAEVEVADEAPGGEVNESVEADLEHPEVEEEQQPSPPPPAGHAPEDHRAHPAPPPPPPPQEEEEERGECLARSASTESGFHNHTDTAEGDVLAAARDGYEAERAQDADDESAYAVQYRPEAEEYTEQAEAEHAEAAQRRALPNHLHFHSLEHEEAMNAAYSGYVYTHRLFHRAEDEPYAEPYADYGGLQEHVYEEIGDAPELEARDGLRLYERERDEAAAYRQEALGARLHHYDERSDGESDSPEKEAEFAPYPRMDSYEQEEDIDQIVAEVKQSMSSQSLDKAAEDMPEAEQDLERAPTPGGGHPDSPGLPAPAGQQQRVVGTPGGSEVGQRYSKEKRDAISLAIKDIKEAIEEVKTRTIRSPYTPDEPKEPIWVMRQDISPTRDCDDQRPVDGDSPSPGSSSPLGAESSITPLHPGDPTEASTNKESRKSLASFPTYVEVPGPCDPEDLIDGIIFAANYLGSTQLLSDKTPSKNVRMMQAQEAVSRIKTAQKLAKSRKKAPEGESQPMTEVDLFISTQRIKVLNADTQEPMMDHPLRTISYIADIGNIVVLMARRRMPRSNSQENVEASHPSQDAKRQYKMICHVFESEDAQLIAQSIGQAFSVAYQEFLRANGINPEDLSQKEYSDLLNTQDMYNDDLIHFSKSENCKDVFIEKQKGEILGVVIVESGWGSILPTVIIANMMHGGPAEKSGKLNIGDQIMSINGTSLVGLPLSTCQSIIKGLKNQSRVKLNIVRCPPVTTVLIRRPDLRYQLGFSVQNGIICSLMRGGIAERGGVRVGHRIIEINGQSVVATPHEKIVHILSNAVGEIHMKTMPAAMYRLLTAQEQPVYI
Test: disruptors of Mint-PDZ/N-type channel peptide interaction – biochemical, HTRF, set 2, SAR follow-up (AID 434980)

pIC50 | Compound
4.98 | CC12C=CC(C)(O1)c1c2c(O)n(-c2ccccc2)c1O [4,7-dimethyl-2-phenyl-3a,7a-dihydro-octahydro-1H-4,7-epoxyisoindole-1,3-dione]
5.19 | CC(=O)Oc1ccc(-n2c(O)c3c(c2O)C2(C)C=CC3(C)O2)cc1 [MLS000107813]
< 4.25 | COC(=O)c1cc(-n2c(O)c3c(c2O)C2(C)C=CC3(C)O2)ccc1Cl [MLS000107828]
5.24 | CCCc1ccc(CC2=C(C(=O)OCC)C(=O)c3ccccc3C2=O)cc1 [MLS000571357]
4.73 | CC(=O)Oc1ccc(-n2c(O)c3c(c2O)C2C=CC3O2)cc1 [[4-(1,3-dioxo-3a,4,7,7a-tetrahydro-octahydro-1H-4,7-epoxyisoindol-2-yl)phenyl] acetate]

Second part, the molecule before the results:

Compound | pIC50
CC12C=CC(C)(O1)c1c2c(O)n(-c2ccc3c(c2)OCO3)c1O | < 4.25
CC(=O)Oc1cccc(-n2c(O)c3c(c2O)C2(C)C=CC3(C)O2)c1 | 5.01 and 5.02
CC12C=CC(C)(O1)c1c2c(O)n(-c2ccc(Cl)cc2)c1O | < 4.25
Cc1ccc(-n2c(O)c3c(c2O)C2(C)C=CC3(C)O2)cc1 | < 4.25
CC12C=CC(C)(O1)c1c2c(O)n(-c2ccc(F)cc2)c1O [2-(4-fluorophenyl)-4,7-dimethyl-3a,7a-dihydro-octahydro-1H-4,7-epoxyisoindole-1,3-dione] | 5.05
Cc1cccc(-n2c(O)c3c(c2O)C2(C)C=CC3(C)O2)c1 [4,7-dimethyl-2-(3-methylphenyl)-3a,7a-dihydro-octahydro-1H-4,7-epoxyisoindole-1,3-dione] | 5.05
